Measured values taken from US9040530B2, “1,2,4-triazine-6-carboxamide kinase inhibitors” (Portola Pharmaceuticals, Inc., priority 2012, dated 2015).

Each compound was assayed against T1, full length active recombinant SYK enzyme (Homo sapiens, UniProt P43405) (assay: Inhibition of Syk tyrosine phosphorylation activity (LANCE TR-FRET kinase assay)). Conditions: 1 nM active SYK enzyme, 550 nM SYK-substrate, 100 μM ATP, 1 hour at room temperature.
T1 construct: full length active recombinant SYK enzyme (Millipore, Calif.); purchased Millipore
Format: biochemical

IC50 [nM]	SMILES
10 to 100	CC(C)C[C@@H](Nc1nnc(C(N)=O)c(Nc2ccc(Cl)cc2)n1)C(N)=O [Example 248, (R)-3-((1-amino-4-methyl-1-oxopentan-2-yl)amino)-5-((4-chlorophenyl)amino)-1,2,4-triazine-6-carboxamide]
10 to 100	NC(=O)c1nnc(N[C@@H]2CCCC(F)(F)[C@@H]2N)nc1Nc1cccc(Cl)c1 [Example 201, 3-(((1R,2R)-2-amino-3,3-difluorocyclohexyl)amino)-5-((3-chlorophenyl)amino)-1,2,4-triazine-6-carboxamide]
10 to 100	Cc1ccc(Nc2nc(N[C@H](CC(C)C)C(N)=O)nnc2C(N)=O)cc1 [Example 121, (R)-3-((1-amino-4-methyl-1-oxopentan-2-yl)amino)-5-(p-tolylamino)-1,2,4-triazine-6-carboxamide]
1 to 10	CC(C)C[C@@H](Nc1nnc(C(N)=O)c(Nc2ccc3c(cnn3C)c2)n1)C(N)=O [Example 111, (R)-3-((1-amino-4-methyl-1-oxopentan-2-yl)amino)-5-((1-methyl-1H-indazol-5-yl)amino)-1,2,4-triazine-6-carboxamide]
10 to 100	CC[C@@H](Nc1nnc(C(N)=O)c(Nc2cnc3ccc(F)cc3c2)n1)C(N)=O [Example 123, (R)-3-((1-amino-1-oxobutan-2-yl)amino)-5-((6-fluoroquinolin-3-yl)amino)-1,2,4-triazine-6-carboxamide]
10 to 100	Cc1cc(Nc2nc(N[C@@H]3CCOC[C@@H]3N)nnc2C(N)=O)sn1 [Example 142, 3-(((3R,4R)-3-aminotetrahydro-2H-pyran-4-yl)amino)-5-((3-methylisothiazol-5-yl)amino)-1,2,4-triazine-6-carboxamide]
100 to 1000	Cc1ccc(Nc2nc(N[C@@H](C(N)=O)c3ccccc3)nnc2C(N)=O)cc1 [Example 191, (R)-3-(2-amino-2-oxo-1-phenylethylamino)-5-(p-tolylamino)-1,2,4-triazine-6-carboxamide]
10 to 100	CC[C@@H](Nc1nnc(C(N)=O)c(Nc2ccc(Cl)c(OC)c2)n1)C(N)=O [Example 232, (R)-3-((1-amino-1-oxobutan-2-yl)amino)-5-((4-chloro-3-methoxyphenyl)amino)-1,2,4-triazine-6-carboxamide]
1 to 10	Cc1ccc(Nc2nc(N[C@@H]3CCCC[C@@H]3N)nnc2C(N)=O)cc1F [Example 19, 3-(((1R,2S)-2-aminocyclohexyl)amino)-5-((3-fluoro-4-methylphenyl)amino)-1,2,4-triazine-6-carboxamide]
10 to 100	NC(=O)c1nnc(N[C@@H]2CCCC(F)(F)[C@@H]2N)nc1Nc1csc2ncccc12 [Example 38, 3-(((1R,2R)-2-amino-3,3-difluorocyclohexyl)amino)-5-(thieno[2,3-b]pyridin-3-ylamino)-1,2,4-triazine-6-carboxamide]
1 to 10	NC(=O)c1nnc(N[C@@H]2CCOC[C@@H]2N)nc1Nc1cccc(-c2ncco2)c1 [Example 252, 3-(((3R,4R)-3-aminotetrahydro-2H-pyran-4-yl)amino)-5-((3-(oxazol-2-yl)phenyl)amino)-1,2,4-triazine-6-carboxamide]
1 to 10	COc1ccc(Nc2nc(N[C@@H]3CCCC[C@@H]3N)nnc2C(N)=O)cc1C(F)(F)F [Example 114, 3-(((1R,2S)-2-aminocyclohexyl)amino)-5-((4-methoxy-3-(trifluoromethyl)phenyl)amino)-1,2,4-triazine-6-carboxamide]
10 to 100	NC(=O)c1nnc(N[C@@H]2CCCC[C@@H]2N)nc1Nc1ccc2nccn2c1 [Example 44, 3-(((1R,2S)-2-aminocyclohexyl)amino)-5-(imidazo[1,2-a]pyridin-6-ylamino)-1,2,4-triazine-6-carboxamide]
100 to 1000	CC[C@@H](Nc1nnc(C(N)=O)c(Nc2ccc(OC)c(C(F)(F)F)c2)n1)C(N)=O [Example 112, (R)-3-((1-amino-1-oxobutan-2-yl)amino)-5-((4-methoxy-3-(trifluoromethyl)phenyl)amino)-1,2,4-triazine-6-carboxamide]
100 to 1000	NC(=O)c1nnc(N[C@@H]2CCCC(F)(F)[C@@H]2N)nc1Nc1cccc(-c2ncccn2)c1 [Example 2, 3-(((1R,2R)-2-amino-3,3-difluorocyclohexyl)amino)-5-((3-(pyrimidin-2-yl)phenyl)amino)-1,2,4-triazine-6-carboxamide]
10 to 100	C[C@@H](Nc1nnc(C(N)=O)c(Nc2ccc3ccn(C)c3c2)n1)C(N)=O [Example 164, (R)-3-((1-amino-1-oxopropan-2-yl)amino)-5-((1-methyl-1H-indol-6-yl)amino)-1,2,4-triazine-6-carboxamide]
1 to 10	NC(=O)c1nnc(N[C@@H]2CCCC[C@@H]2N)nc1Nc1cccc(-c2ncco2)c1 [Example 7, 3-(((1R,2S)-2-aminocyclohexyl)amino)-5-((3-(oxazol-2-yl)phenyl)amino)-1,2,4-triazine-6-carboxamide]
10 to 100	CC[C@@H](Nc1nnc(C(N)=O)c(Nc2ccc3c(c2)CS(=O)(=O)C3)n1)C(N)=O [Example 220, (R)-3-((1-amino-1-oxobutan-2-yl)amino)-5-((2,2-dioxido-1,3-dihydrobenzo[c]thiophen-5-yl)amino)-1,2,4-triazine-6-carboxamide]
10 to 100	NC(=O)c1nnc(N[C@@H]2CCCC(F)(F)[C@@H]2N)nc1Nc1ccc2scnc2c1 [Example 245, 3-(((1R,2R)-2-amino-3,3-difluorocyclohexyl)amino)-5-(benzo[d]thiazol-5-ylamino)-1,2,4-triazine-6-carboxamide]
10 to 100	NC(=O)c1nnc(N[C@@H]2CCCC[C@@H]2N)nc1Nc1ccc(C(=O)N2CCC2)cc1 [Example 63, 3-(((1R,2S)-2-aminocyclohexyl)amino)-5-((4-(azetidine-1-carbonyl)phenyl)amino)-1,2,4-triazine-6-carboxamide]
10 to 100	CC[C@@H](Nc1nnc(C(N)=O)c(Nc2cccc3c2cnn3C)n1)C(N)=O [Example 107, (R)-3-((1-amino-1-oxobutan-2-yl)amino)-5-((1-methyl-1H-indazol-4-yl)amino)-1,2,4-triazine-6-carboxamide]
10 to 100	Cc1ccc(Nc2nc(N[C@@H]3CCCC(F)(F)[C@@H]3N)nnc2C(N)=O)cc1F [Example 205, 3-(((1R,2R)-2-amino-3,3-difluorocyclohexyl)amino)-5-((3-fluoro-4-methylphenyl)amino)-1,2,4-triazine-6-carboxamide]
10 to 100	NC(=O)c1nnc(N[C@@H]2CCOC[C@@H]2N)nc1Nc1ccc(C(F)(F)F)cc1 [Example 242, 3-(((3R,4R)-3-aminotetrahydro-2H-pyran-4-yl)amino)-5-((4-(trifluoromethyl)phenyl)amino)-1,2,4-triazine-6-carboxamide]
1 to 10	Cc1ccc(Nc2nc(N[C@@H]3CCCC[C@@H]3N)nnc2C(N)=O)cc1C [Example 207, 3-(((1R,2S)-2-aminocyclohexyl)amino)-5-((3,4-dimethylphenyl)amino)-1,2,4-triazine-6-carboxamide]
> 1000	NC(=O)c1nnc(N[C@@H]2CCCC(F)(F)[C@@H]2N)nc1Nc1cccc(-c2ncco2)c1 [Example 130, 3-(((1R,2R)-2-amino-3,3-difluorocyclohexyl)amino)-5-((3-(oxazol-2-yl)phenyl)amino)-1,2,4-triazine-6-carboxamide]
